Calls of active or inactive are those of the source. The rule behind the calls is not given here.
Legend:
[1] = target: T1, Amyloid-beta precursor protein (Homo sapiens, UniProt P05067); experiment: Inhibition of amyloid beta (1 to 42) (unknown origin) aggregation after 48 hrs by thioflavin T fluorescence assay
SH-SY5Y [2] = experiment: Cytotoxicity against human SH-SY5Y cells assessed as cell viability at 10 uM after 48 hrs by MTT assay; type: cell-based
SH-SY5Y [3] = experiment: Neuroprotective activity against amyloid beta (1 to 42)-induced cytotoxicity in human SH-SY5Y cells at 5 to 80 uM after 48 hrs by MTT assay; type: functional, cell-based
[4] = target: T1, Amyloid-beta precursor protein; experiment: Potency index, ratio of curcumin IC50 to compound IC50 for inhibition of amyloid beta (1 to 42) (unknown origin) aggregation

T1 sequence (P05067 whole entry): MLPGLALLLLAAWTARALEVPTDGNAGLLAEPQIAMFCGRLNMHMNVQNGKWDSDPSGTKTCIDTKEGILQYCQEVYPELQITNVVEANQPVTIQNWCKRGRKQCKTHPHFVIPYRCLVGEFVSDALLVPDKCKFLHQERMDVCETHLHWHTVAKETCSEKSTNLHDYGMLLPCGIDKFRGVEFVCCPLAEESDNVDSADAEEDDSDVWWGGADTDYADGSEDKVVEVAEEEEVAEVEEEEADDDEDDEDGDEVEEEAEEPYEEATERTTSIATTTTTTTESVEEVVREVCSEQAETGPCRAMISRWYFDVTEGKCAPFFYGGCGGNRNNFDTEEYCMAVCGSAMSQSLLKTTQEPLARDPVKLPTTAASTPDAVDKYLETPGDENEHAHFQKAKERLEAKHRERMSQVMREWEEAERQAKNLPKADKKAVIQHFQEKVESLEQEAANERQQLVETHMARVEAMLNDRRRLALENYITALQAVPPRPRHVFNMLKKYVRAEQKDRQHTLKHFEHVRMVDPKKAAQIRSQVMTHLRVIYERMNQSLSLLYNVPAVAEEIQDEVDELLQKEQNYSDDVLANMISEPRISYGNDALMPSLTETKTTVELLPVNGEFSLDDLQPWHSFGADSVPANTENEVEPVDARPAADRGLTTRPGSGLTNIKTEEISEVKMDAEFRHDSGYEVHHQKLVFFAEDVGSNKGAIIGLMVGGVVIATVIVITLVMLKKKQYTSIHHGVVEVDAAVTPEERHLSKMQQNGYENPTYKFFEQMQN

IC50 [1] | Ratio IC50 [4] | Structure (SMILES) | Activity (SH-SY5Y [2]) | Activity (SH-SY5Y [3])
4.3 µM | – | COc1cc(-c2cc(-c3c(O)cccc3O)[nH]n2)ccc1O | Non-toxic | –
15.8 µM | – | Oc1ccc(-c2cc(-c3c(O)cccc3O)[nH]n2)cc1 | – | –
1.3 µM | 3 | Oc1ccc(-c2cc(-c3c(O)cccc3O)[nH]n2)cc1O | Non-toxic | Active
2.9 µM | – | COc1cc(-c2cc(-c3c(O)cccc3O)[nH]n2)cc(OC)c1O | Non-toxic | –

Reference: ChEMBL document CHEMBL3593231, “3,5-Diarylpyrazole Derivatives Obtained by Ammonolysis of the Total Flavonoids from Chrysanthemum indicum Extract Show Potential for the Treatment of Alzheimer's Disease” (J Nat Prod, 2015)
